ChEMBL document CHEMBL1140634, “The biology and chemistry of hyperlipidemia” (Bioorg Med Chem, 2007)
pIC50, pKi: −log10 of the molar value. Values belong to the molecule of their own block, whether it stands above or below them.

Legend:
HepG2 [1] = assay: Inhibition of fatty acid synthesis in human HepG2 cells; assay type: functional
Rattus norvegicus [2] = organism: Rattus norvegicus; assay: Inhibition of cholesterol synthesis in rat; assay type: functional
HepG2 [3] = assay: Inhibition of cholesterol synthesis in human HepG2 cells; assay type: functional
Rattus norvegicus [4] = organism: Rattus norvegicus; assay: Inhibition of fatty acid synthesis in rat; assay type: functional
[5] = Inhibition of HMG-CoA synthase
Oryctolagus cuniculus = organism: Oryctolagus cuniculus; assay: Decrease in aortic arch lesions in cholesterol fed rabbit; assay type: functional; design: scale not given: the % may be the effect or the level left
[6] = Inhibition of rat liver microsomal squalene synthase
[7] = Inhibition of ferrous/ascorbate induced lipid peroxidation of microsomal membrane lipids; assay type: functional
Rattus norvegicus [8] = assay: Reduction in LDL cholesterol in rat plasma at 20 mg/kg, po qd for 7 days; assay type: functional; design: scale not given: the % may be the effect or the level left
Rattus norvegicus [9] = organism: Rattus norvegicus; assay: Inhibition of [14C]cholesterol synthesis in rat liver after 1 hr; assay type: functional
[10] = molecular target: T1, Pancreatic triacylglycerol lipase (Homo sapiens, UniProt P16233); assay: Inhibition of pancreatic lipase
T1 sequence (P16233 whole entry): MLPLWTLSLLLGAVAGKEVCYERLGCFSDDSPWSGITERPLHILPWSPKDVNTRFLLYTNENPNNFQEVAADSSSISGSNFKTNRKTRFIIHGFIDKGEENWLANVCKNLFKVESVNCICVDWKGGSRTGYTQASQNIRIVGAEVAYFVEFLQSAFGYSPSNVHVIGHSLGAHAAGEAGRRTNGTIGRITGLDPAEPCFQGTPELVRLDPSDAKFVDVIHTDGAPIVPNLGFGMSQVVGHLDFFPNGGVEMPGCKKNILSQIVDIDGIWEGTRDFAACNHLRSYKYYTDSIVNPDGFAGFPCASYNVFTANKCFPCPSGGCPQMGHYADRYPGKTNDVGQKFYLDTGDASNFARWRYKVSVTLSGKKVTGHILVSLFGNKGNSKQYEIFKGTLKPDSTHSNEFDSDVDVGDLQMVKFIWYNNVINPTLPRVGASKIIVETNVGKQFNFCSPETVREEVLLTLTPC

Rattus norvegicus [11] = organism: Rattus norvegicus; assay: Reduction of cholesterol absorption in normal diet fed rat; assay type: functional
[12] = molecular target: T2, Lanosterol 14-alpha demethylase (Rattus norvegicus, UniProt Q64654); assay: Inhibition of rat liver LDM
T2 sequence (Q64654 whole entry): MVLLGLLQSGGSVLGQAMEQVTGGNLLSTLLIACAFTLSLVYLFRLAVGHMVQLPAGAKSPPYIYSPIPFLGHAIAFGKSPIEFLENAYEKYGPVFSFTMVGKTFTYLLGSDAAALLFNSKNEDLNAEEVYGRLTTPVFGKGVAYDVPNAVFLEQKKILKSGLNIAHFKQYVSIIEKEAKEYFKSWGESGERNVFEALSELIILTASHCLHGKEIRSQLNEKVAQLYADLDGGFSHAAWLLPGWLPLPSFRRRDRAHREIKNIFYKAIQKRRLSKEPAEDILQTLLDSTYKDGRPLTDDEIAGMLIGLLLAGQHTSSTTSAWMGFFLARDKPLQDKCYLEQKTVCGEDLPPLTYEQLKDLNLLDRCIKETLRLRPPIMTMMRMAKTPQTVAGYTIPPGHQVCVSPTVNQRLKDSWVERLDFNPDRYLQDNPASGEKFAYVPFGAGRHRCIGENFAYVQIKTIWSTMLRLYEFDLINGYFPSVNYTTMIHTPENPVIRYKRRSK

Rattus norvegicus [13] = assay: Inhibition of cholesterol biosynthesis in po dosed Sprague-Dawley rat; assay type: functional
Rhesus monkey = assay: Decrease in nonHDL-C level in rhesus monkey plasma at 50 mg/kg, bid for 21 days; assay type: functional, Macaca mulatta; design: scale not given: the % may be the effect or the level left
[14] = Inhibition of pig OSC; design: species or system Sus scrofa
Lanosterol synthase = molecular target: T3, Lanosterol synthase (Candida albicans (strain SC5314 / ATCC MYA-2876) (Yeast), UniProt Q04782)
T3 sequence (Q04782 whole entry): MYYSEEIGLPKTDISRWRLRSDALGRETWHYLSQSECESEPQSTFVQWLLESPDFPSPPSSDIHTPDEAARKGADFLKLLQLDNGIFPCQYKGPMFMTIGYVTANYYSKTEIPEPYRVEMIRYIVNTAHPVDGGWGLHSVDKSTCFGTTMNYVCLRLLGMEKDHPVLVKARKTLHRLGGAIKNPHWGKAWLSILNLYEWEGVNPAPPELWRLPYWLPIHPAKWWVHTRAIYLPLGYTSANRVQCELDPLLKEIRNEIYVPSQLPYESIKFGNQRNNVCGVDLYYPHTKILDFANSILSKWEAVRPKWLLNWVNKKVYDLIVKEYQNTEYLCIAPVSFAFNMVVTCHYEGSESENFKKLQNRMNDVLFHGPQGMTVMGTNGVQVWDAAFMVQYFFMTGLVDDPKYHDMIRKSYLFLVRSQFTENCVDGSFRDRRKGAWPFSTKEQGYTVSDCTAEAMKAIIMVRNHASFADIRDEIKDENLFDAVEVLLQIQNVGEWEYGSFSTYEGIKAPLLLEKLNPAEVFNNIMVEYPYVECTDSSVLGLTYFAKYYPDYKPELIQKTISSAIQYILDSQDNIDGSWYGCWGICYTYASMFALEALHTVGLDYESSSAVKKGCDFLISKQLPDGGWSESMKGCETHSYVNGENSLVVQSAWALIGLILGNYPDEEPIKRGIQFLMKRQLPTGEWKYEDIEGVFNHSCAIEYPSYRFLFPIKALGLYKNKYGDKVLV
Description: Inhibition of Candida albicans OSC

[15] = molecular target: T4, 3-hydroxy-3-methylglutaryl-coenzyme A reductase (Homo sapiens) (UniProt P04035); assay: Inhibition of HMG-CoA reductase relative to control; details: concentration not given here
T4 sequence (whole entry): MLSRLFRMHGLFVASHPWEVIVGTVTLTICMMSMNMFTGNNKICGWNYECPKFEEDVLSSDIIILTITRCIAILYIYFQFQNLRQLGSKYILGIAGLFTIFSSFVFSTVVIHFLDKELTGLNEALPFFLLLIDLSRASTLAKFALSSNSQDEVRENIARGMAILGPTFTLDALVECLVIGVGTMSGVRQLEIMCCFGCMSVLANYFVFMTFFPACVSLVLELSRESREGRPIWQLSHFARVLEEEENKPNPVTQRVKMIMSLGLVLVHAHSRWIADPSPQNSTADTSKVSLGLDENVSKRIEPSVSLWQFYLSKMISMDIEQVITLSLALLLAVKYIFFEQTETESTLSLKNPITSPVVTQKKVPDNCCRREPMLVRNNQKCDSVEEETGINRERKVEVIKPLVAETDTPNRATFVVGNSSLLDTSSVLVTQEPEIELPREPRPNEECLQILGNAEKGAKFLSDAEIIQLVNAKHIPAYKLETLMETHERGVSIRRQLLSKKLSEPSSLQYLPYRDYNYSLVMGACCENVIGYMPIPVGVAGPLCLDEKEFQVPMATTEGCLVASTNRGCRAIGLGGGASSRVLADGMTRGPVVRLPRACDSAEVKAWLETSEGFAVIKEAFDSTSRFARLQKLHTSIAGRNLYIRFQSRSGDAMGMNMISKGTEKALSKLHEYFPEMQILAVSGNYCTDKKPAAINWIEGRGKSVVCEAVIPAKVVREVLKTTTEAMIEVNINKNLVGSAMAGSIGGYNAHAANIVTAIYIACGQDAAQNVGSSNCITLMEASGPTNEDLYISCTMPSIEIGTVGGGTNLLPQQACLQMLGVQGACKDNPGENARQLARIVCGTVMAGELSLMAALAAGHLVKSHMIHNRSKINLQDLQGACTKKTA

[16] = molecular target: T5, Lanosterol 14-alpha demethylase (Homo sapiens, UniProt Q16850); assay: Inhibition of LDM in human HepG2 cells at 2 nM; assay type: cell-based
T5 sequence (Q16850 whole entry): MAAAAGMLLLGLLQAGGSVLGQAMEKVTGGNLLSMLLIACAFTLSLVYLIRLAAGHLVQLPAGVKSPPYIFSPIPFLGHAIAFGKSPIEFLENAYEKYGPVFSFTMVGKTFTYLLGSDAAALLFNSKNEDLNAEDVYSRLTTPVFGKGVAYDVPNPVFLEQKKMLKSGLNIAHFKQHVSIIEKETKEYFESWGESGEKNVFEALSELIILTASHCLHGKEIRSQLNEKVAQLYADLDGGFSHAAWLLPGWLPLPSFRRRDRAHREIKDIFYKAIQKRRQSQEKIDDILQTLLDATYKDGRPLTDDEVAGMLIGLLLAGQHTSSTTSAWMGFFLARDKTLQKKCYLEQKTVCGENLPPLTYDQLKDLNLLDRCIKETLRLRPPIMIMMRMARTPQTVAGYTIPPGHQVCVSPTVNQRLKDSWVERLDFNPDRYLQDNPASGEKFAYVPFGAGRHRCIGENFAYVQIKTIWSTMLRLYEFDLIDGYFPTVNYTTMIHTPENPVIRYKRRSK

Compound: O=C(O)C[C@@]1(O)C[C@@H](CCCCCCc2ccc(Cl)cc2Cl)OC1=O
Inhibition (HepG2 [1]): 82%
Inhibition (Rattus norvegicus [2]): 76%
Inhibition (HepG2 [3]): 91%
Inhibition (Rattus norvegicus [4]): 39%

Compound: CCC(CC)CC1(C(=O)Nc2ccccc2SC(=O)C(C)C)CCCCC1 [DALCETRAPIB]
Activity (Oryctolagus cuniculus): 70%

Compound: CN1CC(O)(c2ccc(-c3ccccc3)cc2)OC2CCCCC21 (centres undefined)
pIC50 [7]: 3.60

Compound: O[C@@]1(c2ccc(-c3ccc4ncccc4c3)cc2)CN2CCC1CC2
Activity (Rattus norvegicus [8]): 43%
pIC50 [6]: 9.22
ED50 (Rattus norvegicus [9]): 5 mg/kg

Compound: CC(C)c1cc2c(c(O)c1O)[C@@]1(C(=O)O)CCCC(C)(C)[C@@H]1CC2 [CARNOSIC ACID]
pIC50 [10]: 4.44

Compound: O[C@]1(c2ccc(-c3ccc4ncccc4c3)cc2)CN2CCC1CC2
Activity (Rattus norvegicus [8]): 50%
pIC50 [6]: 9.22
ED50 (Rattus norvegicus [9]): 5 mg/kg

Compound: CC1CCN(C(=O)Oc2ccc(Oc3ccccc3)cc2)CC1
ED50 (Rattus norvegicus [11]): 10 mg/kg

Compound: CC(C)CCC[C@@H](C)[C@H]1C/C(=N\O)[C@@]2(C)[C@@H]3CC[C@@]4(C)C[C@@H](O)CC[C@]4(O)[C@H]3CC[C@]12C
pIC50 [12]: 4.26

Compound: COc1ccccc1/C(C)=C/CN(C)CCCC(P(=O)(O)OCOC(=O)C(C)(C)C)P(=O)(OCOC(=O)C(C)(C)C)OCOC(=O)C(C)(C)C (centres undefined)
ED50 (Rattus norvegicus [13]): 1.6 mg/kg

Compound: F/C(COc1ccc2c(c1)[nH]c1ccccc12)=C1/CN2CCC1CC2
ED50 (Rattus norvegicus [9]): 32 mg/kg
Activity (Rhesus monkey): 37%

Compound: CC(C)c1cc2c(c(O)c1O)[C@@]13CCCC(C)(C)[C@@H]1C[C@@H]2OC3=O [CARNOSOL]
pIC50 [10]: 4.89

Compound: CC(C)=CCCC(C)SCC/C(C)=C/CC/C=C(\C)CC/C=C(\C)CCC1OC1(C)C (centres undefined)
pIC50 [14]: 7.30
pKi [14]: 6.30
pIC50 (Lanosterol synthase): 9.66

Results, then the molecule that gave them:

pIC50 [5]: 7.01
Compound: C/C=C/CCCC/C=C/C(=O)N[C@H](C[C@]1(O)C(=O)C2OC2C2OC21)C(=O)OC (some centres undefined)

pIC50 [6]: 8.44
Compound: COc1ccccc1/C(C)=C/CN(C)CCCC(P(=O)(O)O)P(=O)(O)O

pIC50 [5]: 6.82
Compound: C/C=C/CCCC/C=C/C(=O)NC(CC1(O)C(=O)C2OC2C2OC21)C(=O)OC (centres undefined)

pIC50 [5]: 8.70
Compound: CCOc1ccc(CC(=O)OC[C@@H]2[C@H](CC)C(=O)N2Cc2ccc(S(=O)(=O)O)cc2)cc1OCC

pIC50 [5]: 4.51
Compound: C/C=C/CCCC/C=C/C(=O)N[C@@H](C[C@@]1(O)C(=O)C2OC2C2OC21)C(=O)OC (some centres undefined)

inhibition [15]: 30%
inhibition at 0.002 µM [16]: 50%
Compound: CC(C)CCC[C@@H](C)[C@H]1C=C[C@@]2(CC(=O)O)C3=C(CC[C@]12C)[C@@]1(C)CC[C@H](O)C(C)(C)[C@@H]1CC3
